Format in all cases: biochemical
For one assay, the target named is PDE9 (Homo sapiens (Human), UniProt O76083). The assay is described as follows: PDE9 inhibition assay, SPA.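 Further: enzyme reaction incubated for 1 h, then stopped by adding yttrium silicate scintillation proximity beads for the read-out.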 As to conditions: 10 microM compound; 10 nM 3H-cAMP.
A further assay addresses PDE1C (Homo sapiens (Human), UniProt Q14123). In words: PDE1 inhibition assay (PDE1C), SPA. As to conditions: 15 nM tritium labelled cAMP.
The next assay has as its target PDE1A (Homo sapiens (Human), UniProt P54750). In words: PDE1 inhibition assay (PDE1A), SPA. As to conditions: 15 nM tritium labelled cAMP.
A further assay addresses PDE1B (Homo sapiens (Human), UniProt Q01064). The assay is described as follows: PDE1 inhibition assay (PDE1B), SPA. To be noted: 15 nM tritium labelled cAMP.

The text below walks through data of patent publication US11104680B2, “1,5-dihydro-4H-pyrazolo[3,4-d]pyrimidin-4-ones and 1,5-dihydro-4H-pyrazolo[4,3-c]pyridin-4-ones as PDE1 inhibitors” (H. Lundbeck A/S, priority 2016, dated 2021).

By inhibition is commonly meant the change of the read-out against control, counted positive when it falls. Usually IC50 stands for the concentration needed to halve the response being measured. Low readings indicate greater potency, high ones weaker potency.

PDE9, sequence (O76083 whole entry): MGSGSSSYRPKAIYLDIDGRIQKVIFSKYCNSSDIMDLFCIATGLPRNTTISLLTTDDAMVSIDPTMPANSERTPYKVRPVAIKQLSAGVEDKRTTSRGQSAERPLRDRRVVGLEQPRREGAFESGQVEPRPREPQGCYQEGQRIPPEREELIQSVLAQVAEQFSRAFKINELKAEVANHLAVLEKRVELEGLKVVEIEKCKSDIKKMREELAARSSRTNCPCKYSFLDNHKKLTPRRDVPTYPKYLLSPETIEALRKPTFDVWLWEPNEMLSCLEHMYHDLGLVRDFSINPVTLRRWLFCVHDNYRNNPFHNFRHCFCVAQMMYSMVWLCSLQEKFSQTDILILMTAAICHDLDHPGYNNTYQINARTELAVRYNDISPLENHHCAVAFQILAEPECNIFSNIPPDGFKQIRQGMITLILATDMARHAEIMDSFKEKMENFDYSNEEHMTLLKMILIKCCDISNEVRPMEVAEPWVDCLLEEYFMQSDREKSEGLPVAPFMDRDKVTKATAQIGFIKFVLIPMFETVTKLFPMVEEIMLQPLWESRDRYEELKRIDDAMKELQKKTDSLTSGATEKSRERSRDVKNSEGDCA
PDE1B, sequence (Q01064 whole entry): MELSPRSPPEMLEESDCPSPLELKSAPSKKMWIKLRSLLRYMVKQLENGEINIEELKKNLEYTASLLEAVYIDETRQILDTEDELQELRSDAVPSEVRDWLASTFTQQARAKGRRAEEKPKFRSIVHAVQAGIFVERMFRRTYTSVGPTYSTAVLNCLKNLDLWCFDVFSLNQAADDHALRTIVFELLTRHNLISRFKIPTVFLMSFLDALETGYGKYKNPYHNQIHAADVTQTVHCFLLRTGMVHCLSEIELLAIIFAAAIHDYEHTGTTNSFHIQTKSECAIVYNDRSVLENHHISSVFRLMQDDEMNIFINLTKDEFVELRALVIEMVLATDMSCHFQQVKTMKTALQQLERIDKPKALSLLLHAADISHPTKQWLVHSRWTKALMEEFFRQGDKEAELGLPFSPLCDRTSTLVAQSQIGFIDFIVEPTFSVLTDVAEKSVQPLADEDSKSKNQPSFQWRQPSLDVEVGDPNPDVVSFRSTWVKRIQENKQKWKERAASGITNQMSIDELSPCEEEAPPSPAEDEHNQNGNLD
PDE1A, sequence (P54750 whole entry): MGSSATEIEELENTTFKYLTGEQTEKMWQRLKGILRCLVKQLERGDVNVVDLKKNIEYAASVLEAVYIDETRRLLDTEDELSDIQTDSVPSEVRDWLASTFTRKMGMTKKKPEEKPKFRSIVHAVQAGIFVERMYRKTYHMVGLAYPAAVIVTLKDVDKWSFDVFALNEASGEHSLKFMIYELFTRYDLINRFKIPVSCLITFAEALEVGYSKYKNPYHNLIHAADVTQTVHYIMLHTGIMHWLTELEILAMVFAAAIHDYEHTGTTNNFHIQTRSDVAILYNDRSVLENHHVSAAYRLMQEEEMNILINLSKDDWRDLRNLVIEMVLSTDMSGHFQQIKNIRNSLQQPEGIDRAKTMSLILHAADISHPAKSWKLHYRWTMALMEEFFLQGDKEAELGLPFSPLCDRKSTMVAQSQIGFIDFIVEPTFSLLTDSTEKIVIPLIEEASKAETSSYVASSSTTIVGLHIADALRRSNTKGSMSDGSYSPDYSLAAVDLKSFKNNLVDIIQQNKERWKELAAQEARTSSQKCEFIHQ
PDE1C, sequence (Q14123 whole entry): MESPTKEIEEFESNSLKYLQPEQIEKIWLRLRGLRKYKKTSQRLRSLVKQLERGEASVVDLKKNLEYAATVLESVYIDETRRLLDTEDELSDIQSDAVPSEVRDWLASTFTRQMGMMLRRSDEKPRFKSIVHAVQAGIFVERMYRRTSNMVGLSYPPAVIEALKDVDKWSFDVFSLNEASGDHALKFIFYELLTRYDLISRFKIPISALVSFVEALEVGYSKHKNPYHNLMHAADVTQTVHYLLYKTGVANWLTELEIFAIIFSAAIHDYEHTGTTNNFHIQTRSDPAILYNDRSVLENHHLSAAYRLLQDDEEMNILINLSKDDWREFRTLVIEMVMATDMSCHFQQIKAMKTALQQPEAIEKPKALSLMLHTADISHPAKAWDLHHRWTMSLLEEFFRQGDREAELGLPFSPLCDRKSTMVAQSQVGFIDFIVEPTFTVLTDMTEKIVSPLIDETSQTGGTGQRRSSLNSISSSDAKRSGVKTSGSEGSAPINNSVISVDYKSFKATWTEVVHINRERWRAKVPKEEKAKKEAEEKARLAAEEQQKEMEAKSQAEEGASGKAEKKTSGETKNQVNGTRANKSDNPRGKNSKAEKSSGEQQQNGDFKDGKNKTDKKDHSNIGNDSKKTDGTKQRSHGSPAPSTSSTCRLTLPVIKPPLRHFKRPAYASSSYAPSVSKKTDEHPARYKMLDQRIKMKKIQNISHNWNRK
Protocol for PDE1A: (§1) Reactions were initiated by addition of the cyclic nucleotide substrate, and reactions were allowed to proceed for 1 hr at room temperature before being terminated through mixing with 20 μL (0.2 mg) yttrium silicate SPA beads (PerkinElmer). The beads were allowed to settle for 1 hr in the dark before the plates were counted in a Wallac 1450 Microbeta counter.
Protocol for PDE1B: Reactions were initiated by addition of the cyclic nucleotide substrate, and reactions were allowed to proceed for 1 hr at room temperature before being terminated through mixing with 20 μL (0.2 mg) yttrium silicate SPA beads (PerkinElmer).
Protocol for PDE1C: as §1
Protocol for PDE9: Reactions are initiated by addition of the cyclic nucleotide substrate, and reactions are allowed to proceed for one hr at room temperature before being terminated through mixing with 15 μL 8 mg/mL yttrium silicate SPA beads (Amersham).
Following 1 hr incubation the reactions were terminated by addition of 15 uL 8 mg/mL yttrium silicate SPA beads (Amersham).

On to `COc1ccc(Cn2c(C)cc3c(cnn3C3COC3)c2=O)cc1` [Example 28, 5-(4-methoxybenzyl)-6-methyl-1-(oxetan-3-yl)-1,5-dihydro-4H-pyrazolo[4,3-c]pyridin-4-one], for which the inhibition at 10 µM against PDE9 worked out at 14%; on PDE1A (read-out: PDE1A, % inhibition @10 μM, 10 μM compound) it was 63%. Also, the IC50 at PDE1C turned out to be 2180 nM; against PDE1B, 704 nM.

For `COc1ccc(Cn2c(C)cc3c(cnn3C3(C)CCOCC3)c2=O)cc1` [Example 29, 5-(4-methoxybenzyl)-6-methyl-1-(4-methyltetrahydro-2H-pyran-4-yl)-1,5-dihydro-4H-pyrazolo[4,3-c]pyridin-4-one], the inhibition at 10 µM at PDE9 came to 26%. The IC50 at PDE1C was determined as 174 nM; on PDE1A, 119 nM; at PDE1B, 87 nM.
